Source: ChEMBL document CHEMBL3046089, “A study on the reactions of alkyl 4,6-bis(4-fluorophenyl)-2-oxocyclohex-3-ene-1-carboxylate and in vitro antioxidant activity of derivatives” (Med Chem Res, 2013)

Assays:
[1] = Antioxidant activity assessed as concentration equivalent of 0.5 absorbance glutathione for potassium ferricyanide reduction after 20 min by spectrophotometric assay; type: functional
[2] = system: Radical scavenging activity; test: Antioxidant activity assessed as DPPH radical scavenging activity at 1 mg/ml after 20 min by spectrophotometric analysis; type: functional

| Compound | Activity [1] [mg/mL] | Activity [2] [%] |
| --- | --- | --- |
| O=c1c2c([nH]n1-c1ccc([N+](=O)[O-])cc1)C=C(c1ccc(F)cc1)CC2c1ccc(F)cc1 (stereo unspecified) | 3.52 | 94.4 |
| N[C@@H](CCC(=O)N[C@@H](CS)C(=O)NCC(=O)O)C(=O)O | 0.595 | 92.1 |
| CCOC(=O)C1=C(N)C=C(c2ccc(F)cc2)CC1c1ccc(F)cc1 (stereo unspecified) | 25 | 68 |
| O=c1[nH][nH]c2c1C(c1ccc(F)cc1)CC(c1ccc(F)cc1)=C2 (stereo unspecified) | 1.81 | 95.9 |
| COC(=O)c1c(OC)cc(-c2ccc(F)cc2)cc1-c1ccc(F)cc1 | 14.3 | 49.1 |
| COC(=O)C1=C(N)C=C(c2ccc(F)cc2)CC1c1ccc(F)cc1 (stereo unspecified) | 5.55 | 40.9 |
| N/N=C(N)/N=C1/C=C(c2ccc(F)cc2)CC(c2ccc(F)cc2)C1 (stereo unspecified) | 4.03 | 89.2 |
| CCOC(=O)c1c(OC)cc(-c2ccc(F)cc2)cc1-c1ccc(F)cc1 | 22.7 | 50.2 |
| O=C1Nc2ccccc2Nc2cc(-c3ccc(F)cc3)cc(-c3ccc(F)cc3)c21 | 2.64 | 58.7 |
| O=c1c2c(-c3ccc(F)cc3)cc(-c3ccc(F)cc3)cc2[nH]n1-c1ccccc1 | 5.55 | 95.2 |
| CCOC(=O)C1/C(=N/NC(N)=O)C=C(c2ccc(F)cc2)CC1c1ccc(F)cc1 (stereo unspecified) | 8.33 | 66.5 |
| O/N=C1/C=C(c2ccc(F)cc2)CC(c2ccc(F)cc2)C1 (stereo unspecified) | 4.54 | 89.2 |
| COC(=O)C1/C(=N/NC(N)=O)C=C(c2ccc(F)cc2)CC1c1ccc(F)cc1 (stereo unspecified) | 20 | 65.4 |
